In this assay the test system is Lung cancer cell line NCI-H358 containing KRas G12C mutation. In words: Assay for cell proliferation (Cell-titer Glo, 5 days). Format: cell-based, human. The following applies: NCI-H358, 5 days, Cell-titer Glo, read-out: IC50 (nM), Inhibition of NCI-H358 Cell Proliferation. As for the experimental part:
One hundred fifty microliter (150 μL) of media containing 2000 cells per well were seeded into each well of a 96-well culture plate and left to attach overnight in a 37° C. incubator with 5% CO2. Diluted compounds of 0.75 μL for each well were added by liquid handler at a final concentration of 0.5% DMSO. Cells were treated for 5 days in the incubator. Cell-titer Glo (CTG) kit (Promega) was used to assess cell proliferation. Of note, 120 μL of CTG reagent was added to each well and incubated at RT for 10 minutes.

Read-outs that look alike come from different tables or passages of the source. Where only a bound is given, the exact number is not on record here.

For `C=CC(=O)N1CCN(c2nc(=O)n(-c3c(C)cc4c(ncn4C)c3C(C)C)c3nc(-c4c(N)cccc4F)c(Cl)cc23)[C@@H](C)C1` (atropisomer, axis not shown) [Compound 151], the IC50 is 16.2 nM.

Take `C=CC(=O)N1C[C@H](C)N(c2nc(=O)n(-c3c(F)cc4c(ncn4C)c3C3CC3)c3nc(-c4c(N)cccc4F)c(F)cc23)C[C@H]1C` (atropisomer, axis not shown) [Compound 179]: for the setting “Homo sapiens, NCI-H358, 120 h”, the IC50 was 386 nM. `C=CC(=O)N1CCN(c2nc(=O)n(-c3c(C)cc4c(ncn4C)c3C(C)C)c3nc(-c4ccccc4F)c(Cl)cc23)[C@@H](C)C1` (single isomer, unassigned) [Compound 141]: the IC50 worked out at 38 nM.

As to `C=CC(=O)N1CCN(c2nc(=O)n(-c3c(C)cc4c(ncn4C)c3C(C)C)c3nc(-c4ccccc4F)c(Cl)cc23)[C@@H](C)C1` (single isomer, unassigned) [Compound 142], the IC50 amounted to 2.2 nM. On the same count and under the same terms, then `C=CC(=O)N1CCN(c2nc(=O)n(-c3c(F)cc4c(ncn4C)c3C(C)C)c3nc(-c4c(N)cccc4F)c(F)cc23)[C@@H](C)C1` (single isomer, unassigned) [Compound 143], with 1300 nM; and `C=CC(=O)N1CCN(c2nc(=O)n(-c3c(F)cc4c(ncn4C)c3C(C)C)c3nc(-c4c(N)cccc4F)c(F)cc23)[C@@H](C)C1` (single isomer, unassigned) [Compound 144], with 2.5 nM. Regarding `C=CC(=O)N1CCN(c2nc(=O)n(-c3c(C)cc4c(ncn4C)c3C(C)C)c3nc(-c4c(N)cccc4F)c(F)cc23)[C@@H](C)C1` (single isomer, unassigned) [Compound 147], the IC50 is 2.7 nM. Still for that read-out and setting: then `C=CC(=O)N1CCN(c2nc(=O)n(-c3c(C)cc4c(ncn4C)c3C(C)C)c3nc(-c4c(N)cccc4F)c(F)cc23)[C@@H](C)C1` (single isomer, unassigned) [Compound 148], with 78.6 nM; and `C=CC(=O)N1C[C@H](C)N(c2nc(=O)n(-c3c(C)cc4c(ncn4C)c3C(C)C)c3nc(-c4c(O)cccc4F)c(Cl)cc23)C[C@H]1C` (single isomer, unassigned) [Compound 149], with 12.8 nM; and `C=CC(=O)N1C[C@H](C)N(c2nc(=O)n(-c3c(C)cc4c(ncn4C)c3C(C)C)c3nc(-c4c(O)cccc4F)c(Cl)cc23)C[C@H]1C` (single isomer, unassigned) [Compound 150], with 1.1 nM. Same read-out and setting: then `C=CC(=O)N1C[C@H](C)N(c2nc(=O)n(-c3c(C)cc4c(ncn4C)c3C(C)C)c3nc(-c4c(N)cccc4F)c(F)cc23)C[C@H]1C` (single isomer, unassigned) [Compound 153], with 172 nM. The same measure, in the same setting: then `C=CC(=O)N1C[C@H](C)N(c2nc(=O)n(-c3c(C)cc4c(ncn4C)c3C(C)C)c3nc(-c4c(N)cccc4F)c(F)cc23)C[C@H]1C` (single isomer, unassigned) [Compound 154], with 1.4 nM. `C=CC(=O)N1CCN(c2nc(=O)n(-c3c(C)cc4c(ncn4C)c3C(C)C)c3nc(-c4c(O)cccc4F)c(F)cc23)[C@@H](C)C1` (single isomer, unassigned) [Compound 155]: the IC50 came to 60 nM. Consider `C=CC(=O)N1CCN(c2nc(=O)n(-c3c(C)cc4c(ncn4C)c3C(C)C)c3nc(-c4c(O)cccc4F)c(F)cc23)[C@@H](C)C1` (single isomer, unassigned) [Compound 156], for which the IC50 came to 6.9 nM. The same measure, in the same setting: then `C=CC(=O)N1C[C@H](C)N(c2nc(=O)n(-c3c(C)cc4c(ncn4C)c3C(C)C)c3nc(-c4ccccc4F)c(Cl)cc23)C[C@H]1C` (single isomer, unassigned) [Compound 159], with 64.2 nM. Same read-out and setting: then `C=CC(=O)N1C[C@H](C)N(c2nc(=O)n(-c3c(C)cc4c(ncn4C)c3C(C)C)c3nc(-c4ccccc4F)c(Cl)cc23)C[C@H]1C` (single isomer, unassigned) [Compound 160], with 1.3 nM; and `C=CC(=O)N1C[C@H](C)N(c2nc(=O)n(-c3c(C)cc4c(ncn4C)c3C(C)C)c3nc(-c4c(N)cccc4F)c(Cl)cc23)C[C@H]1C` (single isomer, unassigned) [Compound 161], with 32.4 nM. Take `C=CC(=O)N1C[C@H](C)N(c2nc(=O)n(-c3c(C)cc4c(ncn4C)c3C(C)C)c3nc(-c4c(N)cccc4F)c(Cl)cc23)C[C@H]1C` (single isomer, unassigned) [Compound 162]: the IC50 worked out at 0.5 nM.

With `C=CC(=O)N1CCN(c2nc(=O)n(-c3c(C)nc4c(ncn4C)c3C(C)C)c3nc(-c4c(O)cccc4F)c(F)cc23)[C@@H](C)C1` (single isomer, unassigned) [Compound 163], the IC50 (Homo sapiens, NCI-H358, 120 h) turned out to be 44.2 nM. Turning to `C=CC(=O)N1C[C@H](C)N(c2nc(=O)n(-c3c(C)nc4c(ncn4C)c3C(C)C)c3nc(-c4c(N)cccc4F)c(F)cc23)C[C@H]1C` (single isomer, unassigned) [Compound 164], the IC50 is more than 1000 nM.

Consider `C=CC(=O)N1C[C@H](C)N(c2nc(=O)n(-c3c(C)nc4c(ncn4C)c3C(C)C)c3nc(-c4c(N)cccc4F)c(F)cc23)C[C@H]1C` (single isomer, unassigned) [Compound 165], for which the IC50 worked out at 157 nM. Same read-out and setting: then `C=CC(=O)N1C[C@H](C)N(c2nc(=O)n(-c3c(C)nc4c(ncn4C)c3C(C)C)c3nc(-c4ccccc4F)c(Cl)cc23)C[C@H]1C` (single isomer, unassigned) [Compound 167], with 0.8 nM; and `C=CC(=O)N1C[C@H](C)N(c2nc(=O)n(-c3c(C)nc4c(ncn4C)c3C(C)C)c3nc(-c4ccccc4F)c(Cl)cc23)C[C@H]1C` (single isomer, unassigned) [Compound 168], with 20.3 nM. The same measure, in the same setting: then `C=CC(=O)N1C[C@H](C)N(c2nc(=O)n(-c3c(F)cc4c(ncn4C)c3C(C)C)c3nc(-c4ccccc4F)c(Cl)cc23)C[C@H]1C` (single isomer, unassigned) [Compound 169], with 119 nM; and `C=CC(=O)N1C[C@H](C)N(c2nc(=O)n(-c3c(F)cc4c(ncn4C)c3C(C)C)c3nc(-c4ccccc4F)c(Cl)cc23)C[C@H]1C` (single isomer, unassigned) [Compound 170], with 1 nM. For the compound `C=CC(=O)N1C[C@H](C)N(c2nc(=O)n(-c3c(C)nc4c(ncn4C)c3C(C)C)c3nc(-c4c(O)cccc4F)c(Cl)cc23)C[C@H]1C` (single isomer, unassigned) [Compound 171], the IC50 came out at 15.6 nM.

`C=CC(=O)N1C[C@H](C)N(c2nc(=O)n(-c3c(C)nc4c(ncn4C)c3C(C)C)c3nc(-c4c(O)cccc4F)c(Cl)cc23)C[C@H]1C` (single isomer, unassigned) [Compound 172]: the IC50 was 1.2 nM. The same measure, in the same setting: then `C=CC(=O)N1C[C@H](C)N(c2nc(=O)n(-c3c(F)cc4c(ncn4C)c3C(C)C)c3nc(-c4c(N)cccc4F)c(Cl)cc23)C[C@H]1C` (single isomer, unassigned) [Compound 173], with 23.5 nM; and `C=CC(=O)N1C[C@H](C)N(c2nc(=O)n(-c3c(F)cc4c(ncn4C)c3C(C)C)c3nc(-c4c(N)cccc4F)c(Cl)cc23)C[C@H]1C` (single isomer, unassigned) [Compound 174], with 0.2 nM; and `C=CC(=O)N1C[C@H](C)N(c2nc(=O)n(-c3c(C)nc4c(ncn4C)c3C(C)C)c3nc(-c4c(N)cccc4F)c(Cl)cc23)C[C@H]1C` (single isomer, unassigned) [Compound 175], with 16.1 nM. Same read-out and setting: then `C=CC(=O)N1C[C@H](C)N(c2nc(=O)n(-c3c(C)nc4c(ncn4C)c3C(C)C)c3nc(-c4c(N)cccc4F)c(Cl)cc23)C[C@H]1C` (single isomer, unassigned) [Compound 176], with 0.5 nM; and `C=CC(=O)N1C[C@H](C)N(c2nc(=O)n(-c3c(F)cc4c(ncn4C)c3C3CC3)c3nc(-c4c(N)cccc4F)c(Cl)cc23)C[C@H]1C` (single isomer, unassigned) [Compound 177], with 73.7 nM; and `C=CC(=O)N1C[C@H](C)N(c2nc(=O)n(-c3c(F)cc4c(ncn4C)c3C3CC3)c3nc(-c4c(N)cccc4F)c(Cl)cc23)C[C@H]1C` (single isomer, unassigned) [Compound 178], with 0.9 nM. Same read-out and setting: then `C=CC(=O)N1C[C@H](C)N(c2nc(=O)n(-c3c(C(C)C)nc4c(ncn4C)c3C)c3nc(-c4ccccc4F)c(Cl)cc23)C[C@H]1C` (single isomer, unassigned) [Compound 182], with 1.7 nM; and `C=CC(=O)N1C[C@H](C)N(c2nc(=O)n(-c3c(C(C)C)nc4c(ncn4C)c3C)c3nc(-c4c(N)cccc4F)c(Cl)cc23)C[C@H]1C` (single isomer, unassigned) [Compound 183], with 27.4 nM; and `C=CC(=O)N1C[C@H](C)N(c2nc(=O)n(-c3c(C(C)C)nc4c(ncn4C)c3C)c3nc(-c4c(N)cccc4F)c(Cl)cc23)C[C@H]1C` (single isomer, unassigned) [Compound 184], with 0.2 nM. On to `C=CC(=O)N1C[C@H](C)N(c2nc(=O)n(-c3c(C(C)C)nc4c(ncn4C)c3C)c3nc(-c4c(O)cccc4F)c(Cl)cc23)C[C@H]1C` (single isomer, unassigned) [Compound 185], for which the IC50 stood at 21.7 nM. Same read-out and setting: then `C=CC(=O)N1C[C@H](C)N(c2nc(=O)n(-c3c(C(C)C)nc4c(ncn4C)c3C)c3nc(-c4c(O)cccc4F)c(Cl)cc23)C[C@H]1C` (single isomer, unassigned) [Compound 186], with 0.9 nM. With `C=CC(=O)N1C[C@H](C)N(c2nc(=O)n(-c3c(C(C)C)ncnc3C(C)C)c3nc(-c4c(N)cccc4F)c(F)cc23)C[C@H]1C` [4-((2S,5R)-4-acryloyl-2,5-dimethylpiperazin-1-yl)-7-(2-amino-6-fluorophenyl)-1-(4,6-diisopropylpyrimidin-5-yl)-6-fluoropyrido[2,3-d]pyrimidin-2(1H)-one], the IC50 (Homo sapiens, NCI-H358, 120 h) stood at 5.3 nM.

For the origin of these results see patent publication US12110289B2, “Heterocyclic compounds, preparation methods and uses thereof” (InventisBio Co., Ltd., priority 2020, dated 2024).
